According to article PMC8699473, “An Easily Expandable Multi-Drug LC-MS Assay for the Simultaneous Quantification of 57 Oral Antitumor Drugs in Human Plasma” (Cancers, 2021):
Values joined by “and” are separate entries in the source; they are usually repeats but may differ in a detail not shown here. Equal entries are not always repeated.

Experiments:
[1] = Plasma concentrations in patients on oral antitumor therapy (LC-MS); format: in vivo, human; conditions: for Measured plasma concentration: 24 h, ±4 h of trough level: no
Excerpt: The liquid chromatography-mass spectrometer system consisted of a Thermo Scientific Dionex UltiMate^TM 3000 with an integrated and temperature controlled autosampler (Thermo Fisher Scientific, Dreieich, Germany). An Acquity UPLC® BEH C18 column (2.1 × 100 mm, 1.7 µm; Waters, Milford, CT, USA) equipped with an Acquity UPLC® BEH C18 VanGuard^TM Pre-Column (2.1 × 5 mm, 1.7 µm; Waters, Milford, CT, USA) was used for chromatographic separation. The Q-Exactive^TM Focus mass spectrometer (MS) was hyphenated with a heated electrospray ionization (HESI) source (both from Thermo Fisher Scientific, Dreieich, Germany).
Chromatographic separation was achieved using a gradient elution with water containing 0.5% (v/v) FA (eluent A) and MeOH with 0.1% (v/v) FA (eluent B). The injection volume was 5 µL. The gradient program is shown in Supplement Table S2. The flow rate was 0.5 mL/min with a total run time of 15 min. The column heater was maintained at 50 °C and the autosampler temperature was 4 °C.
The following MS and HESI settings were maintained for all analyses: Sheath gas, auxiliary gas, and sweep gas flow rates were set to 60, 20, and 0, respectively. The spray voltage was 4000 V. Both capillary and auxiliary gas heater temperatures were set to 400 °C. High-purity nitrogen gas was used for the HESI source gases and for the bath gas of the C-trap. […] The HESI source was configured in positive mode for ionization.
The stock solutions were stored in glass vials at −80 °C. Aliquots of all stock solutions were combined in ACN (volumes of individual stock solution solvents are negligible) to obtain a standard solution of all analytes with an individual concentration of 200% of the respective trough level (cmin). Eight individual working standards were prepared by stepwise dilution of this standard solution with concentrations from 10 to 200% cmin (shown in Supplement Table S3). Furthermore, the four individual IS stock solutions were combined and diluted to 50 ng/mL with ACN. Calibration and validation standards were prepared by spiking 50 µL pooled human plasma with 10 µL of the respective working solution. Next, 250 µL IS solution (50 ng/mL in ACN) were added and vortexed vigorously. […] Then, 100 µL supernatant were transferred to 300 µL HPLC insert glass vials and diluted with 100 µL eluent (90% A/10% B). For blank samples, 50 µL pooled human plasma were combined with 10 µL ACN (instead of working solution) and prepared as described above. The calibration and validation standards were freshly prepared before every run. Patient plasma samples were prepared as calibration and validation standards (no additional processing step necessary), except for adding 10 µL ACN instead of 10 µL working standard. Before sample preparation, the frozen plasma samples were thawed in absence of light at 4 °C.
Blood samples were collected over the entire dosing interval from patients treated with an oral anticancer drug as listed in Supplement Table S4. […] A maximum of two samples at two different time points throughout the entire dosing interval were collected per patient. Treatment duration before collection was at least five half-lives (depending on the specific oral anticancer drug). The samples were collected in K3-EDTA tubes.
A total of 71 blood samples from 39 patients treated with 14 different oral anticancer drugs were collected (see Supplement Table S4 for details). All patients were recruited from independent outpatient clinics associated with the Comprehensive Cancer Center of the University Hospital Erlangen (CCC Erlangen-EMN). Of 71 blood samples, 41 were taken ±4 h of trough level (cmin).

[2] = Freeze-thaw stability in spiked pooled human plasma; format: physicochemical
[3] = Reference trough level (cmin) at steady state; format: in vivo, human; conditions: minimum steady-state plasma concentration, calculated based on cmax; ref supplement [7], [2,5,24], [51]
[4] = Autosampler stability of ready for injection samples; format: physicochemical, human
[5] = patient plasma, all samples, r.c. = respective cmin

## C=CC(=O)N1CCC[C@@H](n2nc(-c3ccc(Oc4ccccc4)cc3)c3c(N)ncnc32)C1 [Ibrutinib]
[1]; 420 mg/day
  Measured plasma concentration: 3.2 ng/mL and 4.2 ng/mL
[1]; 560 mg/day
  Measured plasma concentration: 115.2 ng/mL and 139.5 ng/mL
[1]; patient plasma concentrations
  Interpatient Coefficient of Variation [%]: 110.0%
[1]; [5]
  Median Concentration of All Samples [% of r.c.]: 110.1 % of r.c.
  Min–Max Concentration [% of r.c.]: 4.8–211.4 % of r.c.
[2]; validation standard 2xLLOV
  Freeze-Thaw Accuracy [%]: 100.8%
[2]; validation standard LLOV
  Freeze-Thaw Accuracy [%]: 100.2%
[2]; validation standard MOV
  Freeze-Thaw Accuracy [%]: 93.3%
[2]; validation standard ULOV
  Freeze-Thaw Accuracy [%]: 95.6%
[3]
  cmin: 66 ng/mL
[4]; validation standard 2xLLOV
  Autosampler (24h, 4°C) Accuracy [%]: 101.4%
  Autosampler (72h, 4°C) Accuracy [%]: 100.0%
[4]; validation standard LLOV
  Autosampler (24h, 4°C) Accuracy [%]: 97.6%
  Autosampler (72h, 4°C) Accuracy [%]: 95.8%
[4]; validation standard MOV
  Autosampler (24h, 4°C) Accuracy [%]: 103.0%
  Autosampler (72h, 4°C) Accuracy [%]: 103.7%
[4]; validation standard ULOV
  Autosampler (24h, 4°C) Accuracy [%]: 100.0%
  Autosampler (72h, 4°C) Accuracy [%]: 102.6%
